# According to patent publication US20220064138A1, “MACROLIDE BREFELDIN A ESTER DERIVATIVES AND USE THEREOF” (OCEAN UNIVERSITY OF CHINA, priority 2019, published 2022):
# How the values were obtained:
# [1] = tested on: Human cervical cancer Hela cells; experiment: Cell proliferation assay (CCK-8); assay type: cell-based; settings: 72 h
# Method in brief: (§1)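 Seventy-two-hour compound treatment at 37 °C of cells seeded 5000/well in 10% FBS DMEM, then 1.5–3 h CCK-8 incubation and 450 nm absorbance. Inhibition is expressed relative to vehicle and blank wells, with duplicate wells and DMSO not above 2‰.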
# [2] = tested on: esophageal cancer Eca-109 cells; experiment: Cell proliferation assay (CCK-8); assay type: cell-based; settings: Homo sapiens, Eca-109, 72 h
# Method in brief: as §1
# [3] = tested on: human breast cancer MCF7 cells; experiment: Cell proliferation assay (CCK-8); assay type: cell-based; settings: MCF7, 72 h
# Method in brief: as §1
# [4] = tested on: human gastric cancer MKN-45 cells; experiment: Cell proliferation assay (CCK-8); assay type: cell-based; settings: MKN-45, 72 h
# Method in brief: as §1
# [5] = tested on: human leukemia K562 cells; experiment: Cell proliferation assay (CCK-8); assay type: cell-based; settings: K562, 72 h
# Method in brief: as §1
# [6] = tested on: human liver cancer HepG2 cells; experiment: Cell proliferation assay (CCK-8); assay type: cell-based; settings: HepG2, 72 h
# Method in brief: as §1
# [7] = tested on: human lung cancer A549 cells; experiment: Cell proliferation assay (CCK-8); assay type: cell-based; settings: A549, 72 h
# Method in brief: as §1
# [8] = tested on: pancreatic cancer PANC-1 cells; experiment: Cell proliferation assay (CCK-8); assay type: cell-based; settings: Homo sapiens, PANC-1, 72 h
# Method in brief: as §1
# physchem = settings: 37° C., x ± s, n = 3
# Method: (§2) Methods: Excess BFA and the compounds disclosed herein were added to 10 mL of three solvents, methanol, acetone and 5% DMSO+95% H2O, respectively, and shaken on a shaker at 37° C. at 100 r/min for 24 h. After 24 h, the samples were centrifuged at 15 000 r/min for 15 min to remove the undissolved compounds. The supernatant was filtered using a 0.45 μm membrane filter. The supernatant was appropriately diluted with methanol and contents of the compounds were determined by HPLC method to calculate the solubility.
# Kunming breed mice = experiment: Toxicity test after intraperitoneal administration to mice; assay type: in vivo; settings: 14 d; for Deaths: high and low doses (BFA effective amount conversion), ip., mice; for Mental condition of the animals after administration / Results of anatomy: abnormality in organs: male, Kunming, mouse, in vivo, ip
# Experimental: Objective: Observation of toxic effects of compounds after intraperitoneally administration (ip.) to mice
# 1) Agents: Compounds disclosed herein were formulated to a suitable concentration.
# 2) Animals: Kunming breed mice, weight 18-22 g, male. Provided by Jinan Pengyue Laboratory Animal Breeding Co., Ltd. Animal license number: SCXK (Shandong 20140007)
# Method: Kunming breed mice, were randomly grouped by weight, 6 mice per group, namely normal control group, BFA high and low dose groups (100 mg/kg and 50 mg/kg, respectively), and high and low dose groups of some compounds disclosed herein (BFA effective amount conversion). […] After 14 d of continuous administration, all the animals were weighed, and the animals were executed to observe whether there were any abnormalities in the organs.
# [9] = Solubility test (shaking 24 h at 37° C., HPLC)
# Method: as §2
SMILES,IC50 [1] [µM],IC50 [2] [µM],IC50 [3] [µM],IC50 [4] [µM],IC50 [5] [µM],IC50 [6] [µM],IC50 [7] [µM],IC50 [8] [µM],solubility at 24 h (physchem; 5% DMSO + 95% H2O) [mg/mL],solubility at 24 h (physchem; Methanol) [mg/mL],Deaths (Kunming breed mice),Mental condition of the animals after administration (Kunming breed mice),Results of anatomy: abnormality in organs (Kunming breed mice),solubility at 24 h (physchem; Acetone) [mg/mL],solubility at 24 h ([9]; 5% DMSO + 95% H2O) [mg/mL],solubility at 24 h ([9]; acetone) [mg/mL],solubility at 24 h ([9]; methanol) [mg/mL]
C[C@H]1CCC/C=C/[C@@H]2C[C@H](OC(=O)/C=C/c3cnc4ccccc4c3)C[C@H]2[C@H](OC(=O)/C=C/c2cnc3ccccc3c2)/C=C/C(=O)O1 [Compound 17c],1 to 10,1 to 10,0.1 to 1,1 to 10,0.1 to 1,0.1 to 1,1 to 10,0.1 to 1,0.45 ± 0.28,20.4 ± 0.52,,,,,,,
"C[C@H]1CCC/C=C/[C@@H]2C[C@H](OC(=O)/C=C/c3cccnc3)C[C@H]2[C@H](O)/C=C/C(=O)O1 [Compound 16a, 7-O-(3-(pyridine-3-yl)acrylic acid)acyl BFA]",0.1 to 1,0.1 to 1,0.1 to 1,0.1 to 1,0.1 to 1,< 0.1,0.1 to 1,< 0.1,,,no deaths,good mental condition,no significant abnormality in all organs,31.6 ± 0.72,,,
"C[C@H]1CCC/C=C/[C@@H]2C[C@H](OC(=O)/C=C/c3cccc(F)c3)C[C@H]2[C@H](O)/C=C/C(=O)O1 [Compound 1a, 7-O-(3-fluorocinnamic acid)acyl BFA]",1 to 10,1 to 10,0.1 to 1,0.1 to 1,0.1 to 1,0.1 to 1,0.1 to 1,0.1 to 1,,,no deaths,good mental condition,no significant abnormality in all organs,,0.33 ± 0.13,21.9 ± 1.53,21.3 ± 1.52
"C[C@H]1CCC/C=C/[C@@H]2C[C@H](OC(=O)/C=C/c3ccc(N(C)C)cc3)C[C@H]2[C@H](OC(=O)/C=C/c2ccc(N(C)C)cc2)/C=C/C(=O)O1 [Compound 10c, 4,7-O-bis(4-dimethylaminocinnamic acid)acyl BFA]",1 to 10,1 to 10,1 to 10,0.1 to 1,0.1 to 1,1 to 10,0.1 to 1,1 to 10,,,no deaths,good mental condition,no significant abnormality in all organs,,0.44 ± 0.08,12.5 ± 0.92,13.3 ± 0.91
